Assay [1] has as its target T1, human calcitonin receptor (Homo sapiens, UniProt P30988).
T1 construct: expressed in transfected cells
T1 sequence (P30988 25-474): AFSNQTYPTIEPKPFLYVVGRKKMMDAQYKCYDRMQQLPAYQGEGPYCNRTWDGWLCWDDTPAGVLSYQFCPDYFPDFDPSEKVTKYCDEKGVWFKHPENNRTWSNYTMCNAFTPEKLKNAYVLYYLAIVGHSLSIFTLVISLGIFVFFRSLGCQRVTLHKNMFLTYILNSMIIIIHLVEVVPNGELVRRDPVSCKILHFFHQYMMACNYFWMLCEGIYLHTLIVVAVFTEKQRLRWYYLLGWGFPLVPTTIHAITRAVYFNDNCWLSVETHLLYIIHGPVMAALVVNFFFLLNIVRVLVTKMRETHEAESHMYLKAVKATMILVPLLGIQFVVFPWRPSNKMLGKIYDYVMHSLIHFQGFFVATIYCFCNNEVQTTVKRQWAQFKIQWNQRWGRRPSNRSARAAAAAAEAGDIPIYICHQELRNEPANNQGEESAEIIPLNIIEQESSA
As to the kind of experiment: ASSAY (VII) binding to the human calcitonin receptor (SPA, 125I-Calcitonin).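 Further: cell membranes (35 ng/µL) combined with SPA beads in 40 µL of pH 7.4 Hepes buffer, 384-well format, signal counted on a TopCounter instrument.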 To be noted: read-out: hCTR bind IC50.

In assay [2] the target is T2, human calcitonin (a) receptor in BHK570 cells (Homo sapiens, UniProt P30988).
T2 construct: expressed in transfected cells
T2 sequence (P30988 25-474): T1 sequence (P30988 25-474)
As to the kind of experiment: ASSAY (II)a functional assay, human calcitonin receptor (CRE luciferase). The conditions noted are these: read-out: hCTR funct. EC50. In kind it is cell-based. The procedure, abridged:
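BHK CRE-luc cells, calcitonin (a) receptor ± RAMP-3 (amylin 3(a)); overnight seeding, 37° C/5% CO2. 3 h ligand exposure, DMEM/10% FBS/10 mM Hepes pH 7.4. LucLite 30 min RT; luminescence (SPC).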

Assay [3] has as its target T3, rat amylin receptor (rat calcitonin receptor + rat RAMP 3) (Rattus norvegicus, UniProt P32214+Q9JJ73).
T3 construct: expressed in transfected cells; host or cells: BHK tk'ts 13 (transient, FuGENE 6), membranes
T3 sequence (P32214 25-479 isoform P32214-2 limits assumed): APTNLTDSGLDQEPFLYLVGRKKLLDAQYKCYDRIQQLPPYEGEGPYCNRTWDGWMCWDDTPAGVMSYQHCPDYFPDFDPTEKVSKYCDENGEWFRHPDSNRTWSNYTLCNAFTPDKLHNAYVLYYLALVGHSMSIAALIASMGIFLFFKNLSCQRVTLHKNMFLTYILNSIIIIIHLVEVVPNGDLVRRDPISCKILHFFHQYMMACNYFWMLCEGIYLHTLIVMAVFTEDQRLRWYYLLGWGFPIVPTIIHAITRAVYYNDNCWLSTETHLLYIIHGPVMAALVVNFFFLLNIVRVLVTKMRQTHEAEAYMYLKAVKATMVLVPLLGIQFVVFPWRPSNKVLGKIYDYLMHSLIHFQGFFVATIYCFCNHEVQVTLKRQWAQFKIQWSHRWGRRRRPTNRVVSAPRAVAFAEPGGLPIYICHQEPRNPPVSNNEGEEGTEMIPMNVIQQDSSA
T3 sequence (Q9JJ73 23-147 partner): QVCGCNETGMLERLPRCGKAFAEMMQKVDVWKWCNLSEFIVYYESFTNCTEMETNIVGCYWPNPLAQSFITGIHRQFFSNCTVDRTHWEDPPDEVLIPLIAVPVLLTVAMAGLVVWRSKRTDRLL
As to the kind of experiment: ASSAY (VI) binding to the rat amylin receptor. The conditions noted are these: for pIC50: binding to rat amylin receptor, read-out: rAmylin-R bind IC50. The procedure, abridged: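 This assay measured binding to the rat amylin receptor. BHK tk′ts 13 cells were transiently transfected with the rat calcitonin receptor using FuGENE® 6 (Roche), following the manufacturer's recommendations. About 48 hours after transfection, the cells were harvested and membranes were prepared from them for the binding determination.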

The mark [4] stands for this setting: Table 7, rat binding selectivity, rCTR IC50 / rAmylin-R IC50.
Where [5] appears, read: Table 7a (preferred compounds), rat binding selectivity, rCTR IC50 / rAmylin-R IC50.
The mark [6] stands for this setting: ratio of rCTR bind IC50 to rAmylin-R bind IC50.

Structures are written as SMILES. pEC50, pIC50: −log10 of the molar value. Numbered stars: 1 amine (or outer) side, 2 acyl side, 3 side chain; on linkers, the order of the positions; unused ones are H or OH. Bridge positions count the residues as written; N and C are the ends. Side chains are listed from the residue outwards. Peptide text beside a SMILES is read from it. * marks the point of attachment. C20 diacid = O=C(O)CCCCCCCCCCCCCCCCCCC(=O)*; γGlu = O=C(O)[C@H](CCC(=O)[*:2])N[*:1]; AEEA = NCCOCCOCC(=O)O

As usually defined, the pIC50 is the negative decadic logarithm of the IC50, by convention in mol/L. In general, pEC50 refers to the EC50 on a negative log10 scale, so that one unit is a factor of ten. `CC[C@H](C)[C@H](NC(=O)[C@H](C)NC(=O)CNC(=O)[C@H](Cc1ccccc1)NC(=O)[C@H](CC(N)=O)NC(=O)[C@@H]1CCCN1C(=O)[C@H](CO)NC(=O)[C@H](CO)NC(=O)[C@H](Cc1c[nH]cn1)NC(=O)[C@H](CCCNC(=N)N)NC(=O)[C@H](CC(C)C)NC(=O)[C@H](Cc1ccccc1)NC(=O)[C@H](Cc1c[nH]cn1)NC(=O)[C@H](C)NC(=O)[C@H](CC(C)C)NC(=O)[C@H](CCCNC(=N)N)NC(=O)[C@H](CCC(N)=O)NC(=O)[C@@H](NC(=O)[C@H](C)NC(=O)[C@@H]1CSSC[C@H](NC(=O)[C@@H](N)CCCCNC(=O)COCCOCCNC(=O)CC[C@H](NC(=O)CCCCCCCCCCCCCCCCCCC(=O)O)C(=O)O)C(=O)N[C@@H](CC(N)=O)C(=O)N[C@@H]([C@@H](C)O)C(=O)N[C@@H](C)C(=O)N[C@@H]([C@@H](C)O)C(=O)N1)[C@@H](C)O)C(=O)N1CCC[C@H]1C(=O)N[C@@H](CO)C(=O)N[C@@H](CO)C(=O)N[C@H](C(=O)N[C@@H](CC(N)=O)C(=O)N[C@H](C(=O)NCC(=O)N[C@@H](CCCNC(=N)N)C(=O)N[C@@H](CC(N)=O)C(=O)N[C@H](C(=O)N[C@@H](Cc1ccc(O)cc1)C(N)=O)[C@@H](C)O)C(C)C)[C@@H](C)O` [Example 84] (H-K([AEEA-γGlu-C20 diacid])CNTATCATQRLAHFLRHSSPNFGAIPSSTNVGRNTY-NH2; disulfide 2-7 (inferred); N-terminus assumed): the values for the pIC50 in assay [1] and in assay [3] (Table 7) were 7.05 and 8.30, respectively. Moreover, the pEC50 in assay [2] is 8.26. Also, the “Ratio rCT/rAmylin binding” value in assay [3] (setting [4]), in assay [3] (setting [5]) and in assay [3] (setting [6]) was 94.3 each time.

As for `CC[C@H](C)[C@H](NC(=O)[C@H](C)NC(=O)CNC(=O)[C@H](Cc1ccccc1)NC(=O)[C@H](CC(N)=O)NC(=O)[C@@H]1CCCN1C(=O)[C@H](CO)NC(=O)[C@H](CO)NC(=O)[C@H](Cc1c[nH]cn1)NC(=O)[C@H](CCCNC(=N)N)NC(=O)[C@H](CC(C)C)NC(=O)[C@H](Cc1ccccc1)NC(=O)[C@H](CCC(=O)O)NC(=O)[C@H](C)NC(=O)[C@H](CC(C)C)NC(=O)[C@H](CCCNC(=N)N)NC(=O)[C@H](CCC(N)=O)NC(=O)[C@@H](NC(=O)[C@H](C)NC(=O)[C@@H]1CSSC[C@H](NC(=O)[C@@H](N)CCCCNC(=O)CC[C@H](NC(=O)CC[C@H](NC(=O)CCCCCCCCCCCCCCCCCCC(=O)O)C(=O)O)C(=O)O)C(=O)N[C@@H](CC(N)=O)C(=O)N[C@@H]([C@@H](C)O)C(=O)N[C@@H](C)C(=O)N[C@@H]([C@@H](C)O)C(=O)N1)[C@@H](C)O)C(=O)N1CCC[C@H]1C(=O)N[C@@H](CO)C(=O)N[C@@H](CO)C(=O)N[C@H](C(=O)N[C@@H](CC(N)=O)C(=O)N[C@H](C(=O)NCC(=O)N[C@@H](Cc1c[nH]cn1)C(=O)N[C@@H](CC(N)=O)C(=O)N[C@H](C(=O)N[C@@H](Cc1ccc(O)cc1)C(N)=O)[C@@H](C)O)C(C)C)[C@@H](C)O` [Example 87] (H-K([γGlu-γGlu-C20 diacid])CNTATCATQRLAEFLRHSSPNFGAIPSSTNVGHNTY-NH2; disulfide 2-7), the negative logarithm of the IC50 (pIC50) in assay [1] was 7.65; in assay [3] (Table 7), 8.68. In addition, the negative logarithm of the EC50 (pEC50) in assay [2] was 8.96. Besides, the “Ratio rCT/rAmylin binding” value in assay [3] (setting [4]), in assay [3] (setting [5]) and in assay [3] (setting [6]) was 45.6 in each case.

Consider `CC[C@H](C)[C@H](NC(=O)[C@H](C)NC(=O)CNC(=O)[C@H](Cc1ccccc1)NC(=O)[C@H](CC(N)=O)NC(=O)[C@@H]1CCCN1C(=O)[C@H](CO)NC(=O)[C@H](CO)NC(=O)[C@H](Cc1c[nH]cn1)NC(=O)[C@H](CCCNC(=N)N)NC(=O)[C@H](CC(C)C)NC(=O)[C@H](Cc1ccccc1)NC(=O)[C@H](CC(N)=O)NC(=O)[C@H](C)NC(=O)[C@H](CC(C)C)NC(=O)[C@H](CCCNC(=N)N)NC(=O)[C@H](CCC(N)=O)NC(=O)[C@@H](NC(=O)[C@H](C)NC(=O)[C@@H]1CSSC[C@H](NC(=O)[C@@H](N)CCCCNC(=O)COCCOCCNC(=O)COCCOCCNC(=O)CC[C@H](NC(=O)CCCCCCCCCCCCCCCCCCC(=O)O)C(=O)O)C(=O)N[C@@H](CC(N)=O)C(=O)N[C@@H]([C@@H](C)O)C(=O)N[C@@H](C)C(=O)N[C@@H]([C@@H](C)O)C(=O)N1)[C@@H](C)O)C(=O)N1CCC[C@H]1C(=O)N[C@@H](CO)C(=O)N[C@@H](CO)C(=O)N[C@H](C(=O)N[C@@H](CC(N)=O)C(=O)N[C@H](C(=O)NCC(=O)N[C@@H](CCCNC(=N)N)C(=O)N[C@@H](CC(N)=O)C(=O)N[C@H](C(=O)N[C@@H](Cc1ccc(O)cc1)C(N)=O)[C@@H](C)O)C(C)C)[C@@H](C)O` [Example 95] (H-K([AEEA-AEEA-γGlu-C20 diacid])CNTATCATQRLANFLRHSSPNFGAIPSSTNVGRNTY-NH2; disulfide 2-7 (inferred); N-terminus assumed), for which the pIC50 in assay [1] was 7.21; in assay [3] (Table 7), 8.26. For the same molecule, the pEC50 in assay [2] is 7.67. Also, the “Ratio rCT/rAmylin binding” value in assay [3] (setting [4]), in assay [3] (setting [5]) and in assay [3] (setting [6]) was 71.3 each time.

For the molecule `CC[C@H](C)[C@H](NC(=O)[C@H](C)NC(=O)CNC(=O)[C@H](Cc1ccccc1)NC(=O)[C@H](CC(N)=O)NC(=O)[C@@H]1CCCN1C(=O)[C@H](CO)NC(=O)[C@H](CO)NC(=O)[C@H](Cc1c[nH]cn1)NC(=O)[C@H](CCCNC(=N)N)NC(=O)[C@H](CC(C)C)NC(=O)[C@H](Cc1ccccc1)NC(=O)[C@H](CCC(=O)O)NC(=O)[C@H](C)NC(=O)[C@H](CC(C)C)NC(=O)[C@H](CCCNC(=N)N)NC(=O)[C@H](CCC(N)=O)NC(=O)[C@@H](NC(=O)[C@H](C)NC(=O)[C@@H]1CSSC[C@H](NC(=O)[C@H](CCCCN)NC(=O)CC[C@H](NC(=O)CCCCCCCCCCCCCCCCCCC(=O)O)C(=O)O)C(=O)N[C@@H](CC(N)=O)C(=O)N[C@@H]([C@@H](C)O)C(=O)N[C@@H](C)C(=O)N[C@@H]([C@@H](C)O)C(=O)N1)[C@@H](C)O)C(=O)N1CCC[C@H]1C(=O)N[C@@H](CO)C(=O)N[C@@H](CO)C(=O)N[C@H](C(=O)N[C@@H](CC(N)=O)C(=O)N[C@H](C(=O)NCC(=O)N[C@@H](CO)C(=O)N[C@@H](CC(N)=O)C(=O)N[C@H](C(=O)N1CCC[C@H]1C(N)=O)[C@@H](C)O)C(C)C)[C@@H](C)O` [Example 8] ({C20 diacid-γGlu}-KCNTATCATQRLAEFLRHSSPNFGAIPSSTNVGSNTP-NH2; disulfide 2-7), the pIC50 in assay [1] was 10.42. Further, the pEC50 in assay [2] is 10.06.

The record behind these values is US9023789B2, “Amylin analogs and pharmaceutical compositions thereof” (Novo Nordisk A/S, priority 2012, dated 2015).
